Source: patent US11702408B2, “5-membered aza-heterocyclic containing delta-opioid receptor modulating compounds, methods of using and making the same” (Trevena, Inc., priority 2017, dated 2023)

Columns and labels:
adult male C57 mice = test: Tail suspension test (TST); type: in vivo, mouse; conditions: TST route sc, p < 0.05 compared to vehicle-treated mice
Protocol: The experiments were performed using adult male C57 mice (6-10 weeks of age, 20-30 g, Hilltop Lab, PA). The mice were housed in standard rodent cages with stainless steel mesh wire bar lids in groups of 4 with controlled temperature and light cycle (6:00 a.m.-6:00 p.m.). Animals were given free access to food (Harlan Teklad Global 18% protein (Madison, Wis.)) and water during a minimum 2-day habituation period to the laboratory. Animals that were used in the study were handled, housed, and sacrificed (using compressed CO2) in accord with the current NIH guidelines regarding the use and care of laboratory animals, and all applicable local, state, and federal regulations and guidelines. Animals are identified by cage number, and by markings applied to the proximal tip of the tail using a permanent marker. Group sizes (n=8, and therefore 30-50 animals per study) provide reliable estimates of treatment effects, and this species and strain of mouse has been recognized as appropriate for pharmacology studies.
To measure efficacy of the compounds the compounds were tested using a tail suspension test. The tail suspension test is a behavioral test used to evaluate the efficacy of antidepressant drugs in rodents. In the TST, mice (n=8/group) were suspended by the tail with tape approximately 30-50 cm above the lab bench. Mice are positioned such that the base of their tail is perpendicular to the lab bench. Each mouse is given 1 trial that last 6 minutes. The total duration of immobility is calculated as the percentage of time that the mouse is immobile. The duration of immobility is the main parameter measured. This is calculated from the cumulated time during which the animals is absent of initiated movements including passive swaying. When antidepressant drugs are administered, immobility is decreased by a variety of classes of antidepressant drugs. One or more of the compounds show antidepressant activity.

[1] = target: T1, delta-opioid receptor (Accession NP_000902) (Homo sapiens, UniProt P41143); test: cAMP assay (receptor G-protein mediated response, HTRF); type: cell-based
Protocol: (§1) Plasmids encoding delta-opioid receptor (Accession NP_000902), mu-opioid receptor (Accession NP_000905) and kappa-opioid receptor (Accession Assession NP_000903) were generated in the pCMV-Prolink backbone and transfected into an EA-arrestin parental human embryonic kidney (HEK-293) cell line from DiscoveRx Corporation. Clonal stable lines were subsequently selected under G418.
Cell lines were grown adherently in Minimum Essential Media (Cellgro cat #10-010-CM) containing 10% fetal bovine serum (Hyclone cat #SH30071.03), 4 mM glutamine (Cellgro cat #25-005-CI), 150 ug/ml hygromycin B (Cellgro cat #30-240-CR), 150 ug/ml G418 (Cellgro cat #30-234-CR), and 50 u/50 ug penicillin/streptomycin (Lonza cat #17-603E). […]
Receptor G-protein mediated responses were determined by measuring changes in intracellular cAMP using CisBio HTRF cAMP HiRange kit (cat #62AM6PEJ) based on time-resolved fluorescence resonance energy transfer (TR-FRET). […] Following a 30 minute incubation at 37° C. the components of the cAMP HiRange kit were added as directed and the plates were read after 1 hour on a BMG PheraStar plate reader. Responses were measured as the ratio of fluorescence at 665 nm/620 nm per manufacturer's instructions.

[2] = target: T1, delta-opioid receptor (Accession NP_000902); test: β-arrestin recruitment assay (DiscoveRx PathHunter); type: cell-based; conditions: β-arrestin pathway, HEK-293 stable line
Protocol: as §1
Cell lines were grown adherently in Minimum Essential Media (Cellgro cat #10-010-CM) containing 10% fetal bovine serum (Hyclone cat #SH30071.03), 4 mM glutamine (Cellgro cat #25-005-CI), 150 ug/ml hygromycin B (Cellgro cat #30-240-CR), 150 ug/ml G418 (Cellgro cat #30-234-CR), and 50 u/50 ug penicillin/streptomycin (Lonza cat #17-603E). Prior to the assay cells were removed from the flasks with CellStripper (Cellgro cat #25-056-CI), repeatedly pipetted to disperse cells, and spun at low speed for 5 min at room temperature. Cells were then resuspended at 250,000 cells/ml in growth media and plated at 5,000 cells/well in 384 well plates (Greiner part #784080). […]
Receptor mediated beta-arrestin recruitment was determined using the DiscoveRx β-arrestin PathHunter Detection kit (cat #93-0001). […] Following a 60 minute incubation at 37° C. the components of the DiscoveRx β-arrestin PathHunter Detection kit were added as directed and the plates were read after 1 hour on a BMG PheraStar plate reader.

T1 sequence (P41143 whole entry): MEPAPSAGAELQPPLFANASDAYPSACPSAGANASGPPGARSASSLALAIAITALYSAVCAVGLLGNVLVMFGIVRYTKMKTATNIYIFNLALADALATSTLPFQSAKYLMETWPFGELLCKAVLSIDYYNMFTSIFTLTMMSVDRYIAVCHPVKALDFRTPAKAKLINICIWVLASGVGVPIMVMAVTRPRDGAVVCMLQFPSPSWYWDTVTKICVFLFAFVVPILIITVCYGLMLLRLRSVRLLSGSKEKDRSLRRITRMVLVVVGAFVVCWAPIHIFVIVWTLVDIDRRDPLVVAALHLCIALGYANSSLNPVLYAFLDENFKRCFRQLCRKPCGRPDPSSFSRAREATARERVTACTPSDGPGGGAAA

Row | Structure (SMILES) | Active TST Dose (adult male C57 mice) [mg/kg] | further results
1 | CCCN1C[C@H](COc2ccc3c(c2)C(=O)NC3)[C@@H](c2ccc(F)cc2)C1 [Compound A0045] | ≤10 | –
2 | CCCN1C[C@H](COc2ccc3c(c2)C(=O)NC3)[C@H](c2ccc(F)cc2)C1 [Compound A0073] | ≤30 | –
3 | CCCN1C[C@@H](COc2ccc3c(c2)C(=O)NC3)[C@H](c2ccc(F)cc2)C1 [Compound A0090] | ≤10 | –
4 | CCCN1C[C@H](COc2ccc3c(c2)C(=O)NC3)[C@H](c2ccccc2)C1 [Compound A0095] | ≤10 | –
5 | O=C1NCc2ccc(OC[C@@H]3CN(CC4CC4)C[C@H]3c3ccc(F)cc3)cc21 [Compound A0105] | ≤10 | –
6 | CCCN1C[C@H](COc2ccc3c(c2)C(=O)NC3)[C@H](c2ccc(F)c(F)c2)C1 [Compound A0108] | ≤10 | –
7 | CCCN1C[C@H](COc2ccc3c(c2)C(=O)NC3)[C@H](c2ccc(OCCN3C(=O)CCC3=O)cc2)C1 [Compound A0113] | ≤10 | –
8 | COc1ccc([C@@H]2CN(CC3CC3)C[C@@H]2COc2ccc3c(c2)C(=O)NC3)cc1F [Compound A0116] | – | Active TST Dose (adult male C57 mice; po): ≤30 mg/kg
9 | CCCN1C[C@@]2(COc3ccc4c(c3)C(=O)NC4)C[C@@]2(c2cccc(F)c2)C1 [Compound A0128] | – | Active TST Dose (adult male C57 mice; po): ≤30 mg/kg
10 | Fc1ccc([C@@H]2CCNC[C@H]2COc2ccc3c(c2)OCO3)cc1 [Paroxetine, paroxetine] | – | hDOR G Span ([1]; G-protein (cAMP) pathway, HEK-293 stable line): <100; selectivity for the delta-opioid receptor ([1]; versus mu- and kappa-opioid receptor): non-selective agonist; hDOR B Span [2]: <100; EC50 ([2]; read-out: hDOR B pEC50 (converted)): > 1000 nM
